How the values were obtained:
Cholinesterase = Cholinesterase (Homo sapiens, UniProt P06276); assay: Inhibitory concentration against human butyrylcholinesterase
[1] = Inhibitory ratio for bovine acetylcholinesterase and equine butyrylcholinesterase
Butyrylcholinesterase = Butyrylcholinesterase (Equus caballus, UniProt Q9N1N9)
Description: Dissociation constant for inhibition of equine Butyrylcholinesterase (BuChE)

Acetylcholinesterase [2] = molecular target: T1, Acetylcholinesterase (Bos taurus, UniProt P23795)
T1 sequence (P23795 whole entry): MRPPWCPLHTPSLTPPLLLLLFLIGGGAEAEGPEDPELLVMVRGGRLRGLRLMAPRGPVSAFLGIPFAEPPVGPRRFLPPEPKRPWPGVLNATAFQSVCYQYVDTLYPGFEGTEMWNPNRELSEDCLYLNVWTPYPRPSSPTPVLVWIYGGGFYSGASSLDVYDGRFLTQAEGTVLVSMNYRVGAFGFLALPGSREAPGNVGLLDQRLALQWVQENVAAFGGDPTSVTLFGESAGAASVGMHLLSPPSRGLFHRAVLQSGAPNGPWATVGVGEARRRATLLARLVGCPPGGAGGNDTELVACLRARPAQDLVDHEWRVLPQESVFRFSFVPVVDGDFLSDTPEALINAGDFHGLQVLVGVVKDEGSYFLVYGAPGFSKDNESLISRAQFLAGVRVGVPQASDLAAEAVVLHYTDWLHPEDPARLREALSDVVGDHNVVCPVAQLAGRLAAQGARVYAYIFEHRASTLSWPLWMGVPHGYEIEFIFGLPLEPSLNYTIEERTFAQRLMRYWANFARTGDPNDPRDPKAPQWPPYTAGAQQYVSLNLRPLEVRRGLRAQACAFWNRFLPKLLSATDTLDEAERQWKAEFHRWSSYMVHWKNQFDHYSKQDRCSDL
Description: Dissociation constant for inhibition of fetal bovine serum Acetylcholinesterase

Acetylcholinesterase [3] = molecular target: Acetylcholinesterase (Homo sapiens, UniProt P22303); assay: Inhibitory concentration against human Acetylcholinesterase
Sequence of Acetylcholinesterase (Homo sapiens, UniProt P22303) (P22303 whole entry): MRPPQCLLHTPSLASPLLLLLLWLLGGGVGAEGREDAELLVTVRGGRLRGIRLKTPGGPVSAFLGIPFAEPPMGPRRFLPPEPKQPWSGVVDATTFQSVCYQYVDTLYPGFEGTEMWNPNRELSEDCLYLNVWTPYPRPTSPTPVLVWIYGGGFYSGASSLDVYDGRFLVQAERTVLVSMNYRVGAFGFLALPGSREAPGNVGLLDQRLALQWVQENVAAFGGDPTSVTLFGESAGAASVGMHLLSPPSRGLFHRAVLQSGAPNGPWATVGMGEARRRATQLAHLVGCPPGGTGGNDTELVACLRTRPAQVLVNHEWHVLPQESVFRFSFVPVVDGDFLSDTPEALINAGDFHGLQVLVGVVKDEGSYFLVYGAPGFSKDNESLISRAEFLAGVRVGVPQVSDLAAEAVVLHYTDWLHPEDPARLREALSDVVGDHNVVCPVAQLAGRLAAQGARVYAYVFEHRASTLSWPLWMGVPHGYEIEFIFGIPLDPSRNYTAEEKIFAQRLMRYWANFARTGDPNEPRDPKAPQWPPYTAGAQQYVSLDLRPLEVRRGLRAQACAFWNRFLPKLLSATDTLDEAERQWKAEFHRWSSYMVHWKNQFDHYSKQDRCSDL

Sequence of Cholinesterase (P06276 whole entry): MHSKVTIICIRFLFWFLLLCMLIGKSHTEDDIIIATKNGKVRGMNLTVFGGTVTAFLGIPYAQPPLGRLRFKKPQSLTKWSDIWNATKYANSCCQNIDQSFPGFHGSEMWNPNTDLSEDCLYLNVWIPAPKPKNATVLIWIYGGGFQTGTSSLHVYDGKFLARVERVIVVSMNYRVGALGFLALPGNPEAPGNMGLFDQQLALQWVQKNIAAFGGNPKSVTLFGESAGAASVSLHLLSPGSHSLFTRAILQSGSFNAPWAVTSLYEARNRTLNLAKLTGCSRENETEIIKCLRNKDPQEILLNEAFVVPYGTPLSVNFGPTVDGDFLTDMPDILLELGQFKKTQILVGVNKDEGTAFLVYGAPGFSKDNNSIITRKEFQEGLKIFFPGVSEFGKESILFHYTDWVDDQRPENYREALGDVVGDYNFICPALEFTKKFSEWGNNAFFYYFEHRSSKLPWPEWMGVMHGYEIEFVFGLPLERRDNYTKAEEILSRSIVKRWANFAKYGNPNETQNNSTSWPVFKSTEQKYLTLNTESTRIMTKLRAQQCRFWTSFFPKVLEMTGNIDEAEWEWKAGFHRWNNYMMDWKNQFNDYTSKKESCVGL
Sequence of Butyrylcholinesterase (Q9N1N9 whole entry): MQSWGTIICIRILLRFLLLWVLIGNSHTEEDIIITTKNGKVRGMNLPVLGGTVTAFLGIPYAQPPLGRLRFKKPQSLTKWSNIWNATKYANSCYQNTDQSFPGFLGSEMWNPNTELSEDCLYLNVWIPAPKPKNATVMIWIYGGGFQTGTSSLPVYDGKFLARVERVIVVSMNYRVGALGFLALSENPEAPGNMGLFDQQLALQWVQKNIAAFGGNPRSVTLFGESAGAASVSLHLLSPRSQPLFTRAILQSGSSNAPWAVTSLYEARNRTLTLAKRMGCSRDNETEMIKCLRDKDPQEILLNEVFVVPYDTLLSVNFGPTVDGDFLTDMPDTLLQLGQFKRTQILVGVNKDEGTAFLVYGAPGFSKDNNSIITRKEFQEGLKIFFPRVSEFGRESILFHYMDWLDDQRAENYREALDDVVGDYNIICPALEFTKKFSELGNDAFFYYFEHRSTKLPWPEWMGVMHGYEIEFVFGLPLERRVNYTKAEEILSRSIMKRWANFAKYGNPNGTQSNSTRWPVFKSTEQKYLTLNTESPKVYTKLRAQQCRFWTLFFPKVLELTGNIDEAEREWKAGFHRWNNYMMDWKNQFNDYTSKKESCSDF

Structure (SMILES) | IC50 (Cholinesterase) [nM] | Ratio [1] | Ki (Butyrylcholinesterase) [nM] | Ki (Acetylcholinesterase [2]) [nM] | IC50 (Acetylcholinesterase [3]) [nM]
c1ccc2c(NCCCCCCCCSc3c4c(nc5ccccc35)CCCC4)c3c(nc2c1)CCCC3 | 0.77 | 625 | – | – | –
c1ccc2c(NCCCCCCCSc3c4c(nc5ccccc35)CCCC4)c3c(nc2c1)CCCC3 | – | 9.7 | – | – | –
CCN(CC)C(C)CN1c2ccccc2Sc2ccccc21 (stereo not given) [ETHOPROPAZINE] | – | – | 20 | – | –
c1ccc2c(NCCCCCCCCCSc3c4c(nc5ccccc35)CCCC4)c3c(nc2c1)CCCC3 | – | 86 | 2.3 | 195 | –
CN(CCCNc1c2c(nc3ccccc13)CCCC2)CCCSc1c2c(nc3ccccc13)CCCC2 | – | 2.2 | 4.2 | 9.1 | –
CN(CCCNc1c2c(nc3ccccc13)CCCC2)CCCNc1c2c(nc3ccccc13)CCCC2 | 10.4 | 0.01 | – | – | 0.3
C=CCN(CCCNc1c2c(nc3ccccc13)CCCC2)CCCNc1c2ccccc2nc2ccccc12 | – | 2.1 | 0.76 | 1.6 | –
CC(=O)N(CCCCSc1c2c(nc3ccccc13)CCCC2)CCCNc1c2c(nc3ccccc13)CCCC2 | – | 427 | 0.11 | 47 | –
c1ccc2c(NCCCCCNc3c4c(nc5ccccc35)CCCC4)c3c(nc2c1)CCCC3 | – | 2.1 | 100 | 210 | –
CC(=O)N(CCCNc1c2c(nc3ccccc13)CCCC2)CCCNc1c2ccccc2nc2ccccc12 | 3.9 | 750 | 2 | 1500 | –
CN(CCCCSc1c2c(nc3ccccc13)CCCC2)CCCNc1c2c(nc3ccccc13)CCCC2 | – | 191 | 0.68 | 130 | –
OCCN(CCCNc1c2c(nc3ccccc13)CCCC2)CCCNc1c2ccccc2nc2ccccc12 | – | 0.2 | 3.3 | 0.65 | –
CC(=O)N(CCCNc1c2c(nc3ccccc13)CCCC2)CCCSc1c2c(nc3ccccc13)CCCC2 | – | 217 | 0.23 | 50 | –
